In patent US8524911B2, “3-arylamino pyridine derivatives” (Merck Serono SA, priority 2004, dated 2013) one finds IC50 data, which are given here for 26 compounds.

For assay [1], the target named is human MEK1 (Homo sapiens, UniProt Q02750). The experiment in a line: MEK-1 Enzyme Assay (LANCE-HTRF). The assay is classed as biochemical. As to conditions: 100 nM MEK1, 15 μM ATP, 300 nM ERK2, two hours; read-out: MEK inhibition. Here is the method:
Assay 1: MEK-1 Enzyme Assay (LANCE-HTRF)
The activity of the compounds of the present invitation may be determined by the following procedure; Inhibition of human MEK1 kinase activity was monitored with a homogenous, fluorescence based assay. The assay uses time resolved fluorescence resonance energy transfer to probe for phosphorylation of ERK1 by MEK1. The assay is carried out in low volume 96 well microtiterplates. […] After two hours, 5 nM Europium-anti-PY20 (Perkin Elmer) and 50 nM Anti-GST-Allophycocyanin (CisBio) in buffer containing 50 mM EDTA and 0.05% BSA are added and the reaction incubated for one hour in the dark. Time-resolved fluorescence is measured using a LJL-Analyst (Molecular Devices) with an excitation wavelength of 340 nm and an emission wavelength of 665 nm. The final concentration of DMSO is 2%.

Assay [2] concerns Murine colon C26 cells. The experiment in a line: Tumor cell proliferation assay (ATP Lite), C26. The assay is classed as cell-based. Conditions: Mus musculus, 96 h, 4 days. As to the method: (§1) Assay 2: Tumor Cell Proliferation Assays (ATP Lite)
(§2) Murine colon C26, human melanoma A375 and MeI5 or human pancreatic MiaPaCa-2 cells were plated in 96 well Corning white plates (1500 cells/well for C26, and 2000 cells/well for A375, and MiaPaCa-2) and cultured overnight at 37° C. in 5% CO2. Inhibitors were serially diluted in 100% DMSO and subsequently added to cells to reach a final concentration of 0.25% DMSO. The cells were incubated for 4 days in the presence of test compounds in cell growth media (DMEM with 10% fetal bovine serum, 2 mM glutamine for C26, and MiaPaCa-2, and RPMI with 10% fetal bovine serum, 2 mM glutamine for A375). Cell proliferation was quantitated using the ATP lite cell proliferation kit (Packard). Columns 4-6 show the concentration of compounds required to induce 50% cell death (IC50 in μM) of […]. With “+” meaning 3 μM<IC50≦10 μM and “++” IC50≦3 μM and “n.d.” means not determined. Few compounds were also tested on human melanoma cell MeI5.

In assay [3] the test system is human melanoma A375 cells. The experiment in a line: Tumor cell proliferation assay (ATP Lite), A375. The format is cell-based. As to conditions: A-375, 96 h, 4 days. Here is the method: as §1, §2
The subject of assay [4] is human pancreatic MiaPaCa-2 cells. The experiment in a line: Tumor cell proliferation assay (ATP Lite), MiaPaCa-2. The assay is classed as cell-based. As to conditions: MIA PaCa-2, 96 h, 4 days. As to the method:
as §1, §2

Sequence of human MEK1 (Q02750 whole entry): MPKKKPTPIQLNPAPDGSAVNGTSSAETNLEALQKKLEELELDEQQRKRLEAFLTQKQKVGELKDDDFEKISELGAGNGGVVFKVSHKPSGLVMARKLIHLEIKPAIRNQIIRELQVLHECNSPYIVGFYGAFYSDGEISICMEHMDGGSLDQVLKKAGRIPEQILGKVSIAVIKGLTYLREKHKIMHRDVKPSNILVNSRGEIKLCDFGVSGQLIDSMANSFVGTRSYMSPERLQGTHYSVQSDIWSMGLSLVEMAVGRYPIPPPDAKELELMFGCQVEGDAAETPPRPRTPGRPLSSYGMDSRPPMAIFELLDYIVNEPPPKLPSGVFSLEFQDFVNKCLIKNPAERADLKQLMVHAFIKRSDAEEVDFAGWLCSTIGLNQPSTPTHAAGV

`CCOC(CNC(=O)c1ccncc1Nc1ccc(I)cc1F)OCC` [Example 98, N-(2,2-diethoxyethyl)-3-[(2-fluoro-4-iodophenyl)amino]-isonicotinamide]: the IC50 in assay [1] was below 1 µM; in assay [2], 3 to 10 µM; in assay [3] it was at most 3 µM; in assay [4] it was 3 to 10 µM.

Consider `O=C(NCc1ccc(F)cc1F)c1ccncc1Nc1ccc(I)cc1F` [Example 93, N-(2,4-difluorobenzyl)-3-[(2-fluoro-4-iodophenyl)amino]-isonicotinamide], for which the IC50 is below 1 µM in assay [1], 3 to 10 µM in assay [2], at most 3 µM in assay [3] and 3 to 10 µM in assay [4].

`O=C(NCCCCO)c1ccncc1Nc1ccc(I)cc1F` [Example 39, 3-[(2-fluoro-4-iodophenyl)amino]-N-(4-hydroxybutyl)-isonicotinamide]: the IC50 in assay [1] was below 1 µM; in assay [2] it was at most 3 µM; in assay [3], at most 3 µM; in assay [4] it was at most 3 µM.

On to `O=C(NCc1ccccc1)c1ccncc1Nc1ccc(I)cc1F` [Example 21, N-benzyl-3-[(2-fluoro-4-iodophenyl)amino]isonicotinamide], for which the IC50 in assay [1] is below 1 µM; in assay [2] it was 3 to 10 µM; in assay [3], at most 3 µM; in assay [4], 3 to 10 µM.

Take `O=C(NCc1ccccn1)c1ccncc1Nc1ccc(I)cc1F` [Example 40, 3-[(2-fluoro-4-iodophenyl)amino]-N-(pyridin-2-ylmethyl)-isonicotinamide]: the IC50 was below 1 µM in assay [1], 3 to 10 µM in assay [2], at most 3 µM in assay [3] and 3 to 10 µM in assay [4].

Regarding `O=C(NCCN1CCOCC1)c1cc(Br)ncc1Nc1ccc(I)cc1F` [Example 88, 2-Bromo-5-(2-fluoro-4-iodo-phenylamino)-N-(2-morpholin-4-yl-ethyl)-isonicotinamide], the IC50 in assay [1] was below 1 µM; in assay [2], 3 to 10 µM; in assay [3] it was 3 to 10 µM; in assay [4], 3 to 10 µM.

For the compound `O=C(NCCN1CCOCC1)c1ccncc1Nc1ccc(I)cc1F` [Example 13, 3-(2-Fluoro-4-iodo-phenylamino)-N-(2-morpholin-4-yl-ethyl)-isonicotinamide], the IC50 in assay [1] was below 1 µM; in assay [2], at most 3 µM; in assay [3] it was at most 3 µM; in assay [4], at most 3 µM.

Regarding `O=C(NOC[C@H](O)CO)c1ccncc1Nc1ccc(I)cc1F` [Example 7, N-{[(2R)-2,3-dihydroxypropyl]oxy}-3-[(2-fluoro-4-iodophenyl)-amino]isonicotin-amide], the IC50 in assay [1] was below 1 µM; in assay [2], at most 3 µM; in assay [3], at most 3 µM; in assay [4], at most 3 µM.

For the compound `O=C(O)c1ccc(CNC(=O)c2ccncc2Nc2ccc(I)cc2F)cc1` [Example 46, 4-[({3-[(2-fluoro-4-iodophenyl)amino]isonicotinoyl}-amino)methyl]benzoic acid], the IC50 in assay [1] was below 1 µM; in assay [2], 3 to 10 µM; in assay [3] it was at most 3 µM; in assay [4] it was 3 to 10 µM.

In the case of `NC(=O)c1ccncc1Nc1ccc(I)cc1F` [Example 12, 3-[(2-fluoro-4-iodophenyl)amino]isonicotinamide], the IC50 is below 1 µM in assay [1], at most 3 µM in assay [2], at most 3 µM in assay [3] and at most 3 µM in assay [4].

Take `Cc1cccc(NNC(=O)c2ccncc2Nc2ccc(I)cc2F)c1` [Example 90, 3-[(2-fluoro-4-iodophenyl)amino]-N′-(3-methylphenyl)isonicotino-hydrazide]: the IC50 in assay [1] is below 1 µM; in assay [2], at most 3 µM; in assay [3] it was at most 3 µM; in assay [4], at most 3 µM.

As for `O=C(NOCc1ccccc1)c1ccncc1Nc1ccc(I)cc1Cl` [Example 81, N-Benzyloxy-3-(2-chloro-4-iodo-phenylamino)-isonicotinamide], the IC50 in assay [1] is below 1 µM; in assay [2], 3 to 10 µM; in assay [3], at most 3 µM; in assay [4], 3 to 10 µM.

With `CC(C)(C)OC(=O)NNC(=O)c1ccncc1Nc1ccc(I)cc1F` [Example 45, tert-butyl 2-{3-[(2-fluoro-4-iodophenyl)amino]-isonicotinoyl}hydrazine-carboxylate], the IC50 in assay [1] is below 1 µM; in assay [2], 3 to 10 µM; in assay [3], at most 3 µM; in assay [4], 3 to 10 µM.

Regarding `O=C(NCCCCl)c1ccncc1Nc1ccc(I)cc1F` [Example 79, N-(3-chloropropyl)-3-[(2-fluoro-4-iodophenyl)-amino]isonicotinamide], the IC50 was below 1 µM in assay [1], at most 3 µM in assay [2], at most 3 µM in assay [3] and at most 3 µM in assay [4].

As for `CNC(=O)c1ccncc1Nc1ccc(I)cc1Cl` [Example 22, 3-[(2-chloro-4-iodophenyl)amino]-N-methylisonicotinamide], the IC50 is below 1 µM in assay [1], at most 3 µM in assay [2], at most 3 µM in assay [3] and at most 3 µM in assay [4].

For the compound `O=C(O)c1ccc(CCNC(=O)c2ccncc2Nc2ccc(I)cc2F)cc1` [Example 102, 4-[2-({3-[(2-fluoro-4-iodophenyl)amino]isonicotinoyl}-amino)ethyl]benzoic acid], the IC50 in assay [1] is below 1 µM; in assay [2] it was 3 to 10 µM; in assay [3] it was at most 3 µM; in assay [4], 3 to 10 µM.

In the case of `Cc1ccc(NNC(=O)c2ccncc2Nc2ccc(I)cc2F)cc1` [Example 99, 3-[(2-fluoro-4-iodophenyl)amino]-N′-(4-methylphenyl)isonicotino-hydrazide], the IC50 in assay [1] was below 1 µM; in assay [2] it was 3 to 10 µM; in assay [3], at most 3 µM; in assay [4] it was 3 to 10 µM.

`O=C(NCCCN1CCOCC1)c1ccncc1Nc1ccc(I)cc1F` [Example 35, 3-[(2-fluoro-4-iodophenyl)amino]-N-(3-morpholin-4-ylpropyl)-isonicotinamide]: the IC50 is below 1 µM in assay [1], at most 3 µM in assay [2], at most 3 µM in assay [3] and at most 3 µM in assay [4].

Consider `COC(=O)c1ccncc1Nc1ccc(I)cc1Cl` [Example 10, Methyl 3-[(2-chloro-4-iodophenyl)amino]isonicotinate], for which the IC50 in assay [1] was below 1 µM; in assay [2], 3 to 10 µM; in assay [3], at most 3 µM; in assay [4] it was at most 3 µM.

As for `CC(O)CNC(=O)c1ccncc1Nc1ccc(I)cc1F` (centres unmarked) [Example 14, 3-[(2-fluoro-4-iodophenyl)amino]-N-(2-hydroxypropyl)-isonicotinamide], the IC50 in assay [1] is below 1 µM; in assay [2], at most 3 µM; in assay [3], at most 3 µM; in assay [4] it was at most 3 µM.

In the case of `NC(=O)c1cc[n+]([O-])cc1Nc1ccc(I)cc1F` [Example 97, 3-(2-Fluoro-4-iodo-phenylamino)-1-oxy-isonicotinamide], the IC50 in assay [1] is below 1 µM; in assay [2], at most 3 µM; in assay [3], at most 3 µM; in assay [4] it was at most 3 µM.

`NC(=O)c1ccnc(Cl)c1Nc1ccc(I)cc1F` [Example 31, 2-Chloro-3-(2-fluoro-4-iodo-phenylamino)-isonicotinamide]: the IC50 in assay [1] was below 1 µM; in assay [2], at most 3 µM; in assay [3], at most 3 µM; in assay [4], at most 3 µM.

On to `O=C(NN1CCCCCC1)c1ccncc1Nc1ccc(I)cc1F` [Example 42, N-azepan-1-yl-3-[(2-fluoro-4-iodophenyl)amino]isonicotinamide], for which the IC50 in assay [1] was below 1 µM; in assay [2] it was 3 to 10 µM; in assay [3] it was at most 3 µM; in assay [4], 3 to 10 µM.

For the compound `NNC(=O)c1ccncc1Nc1ccc(I)cc1F` [Example 51, 3-[(2-fluoro-4-iodophenyl)amino]isonicotinohydrazide], the IC50 in assay [1] is below 1 µM; in assay [2] it was 3 to 10 µM; in assay [3], at most 3 µM; in assay [4] it was at most 3 µM.

On to `O=C(NC1CC2CCC1C2)c1ccncc1Nc1ccc(I)cc1F` (centres unmarked) [Example 82, N-bicyclo[2.2.1]hept-2-yl-3-[(2-fluoro-4-iodophenyl)amino]-isonicotinamide], for which the IC50 in assay [1] is below 1 µM; in assay [2], 3 to 10 µM; in assay [3], at most 3 µM; in assay [4], 3 to 10 µM.

With `CC(C)(C)ONC(=O)c1ccncc1Nc1ccc(I)cc1Cl` [Example 65], the IC50 in assay [1] was below 1 µM; in assay [2], 3 to 10 µM; in assay [3], at most 3 µM; in assay [4] it was 3 to 10 µM.
